Read-outs that look alike come from different tables or passages of the source.
What was measured:
[1] = tested on: uric acid serum levels; settings: test subject A; for Uric acid serum level: saturated sodium bicarbonate water bath 38° C., twice a day 60 minutes
Description: (§1) The method of the experiment includes test subject A submerging an affected joint into a warm bath containing water and sodium bicarbonate. The heat was used to facilitate opening of skin pores to facilitate absorption of the active ingredient or agent. […] Control subject B submerged their affected foot into a pure water bath without any other substance or compound at 38° C. for twice a day for durations of 60 minutes, and for a total of six months. […] A phlebotomist drew a vial of blood from each subject's arm, and the samples were processed by an analyzer, model AU480, by Beckman Coulter.
(§2) Both test subject A and control subject B were diagnosed of hyperuricemia based on personal and clinical assessments, such as, e.g., multiple previous acute gout attacks, presence of swelling and tophi at the affected joint, and measured uric acid serum levels above […]. Both test subject A and control subject B were not on any medication at the time of the experiment, and maintained a low-purine diet, such as, e.g., primarily fruits, vegetables, and bread.

[2] = test subject A, over the six-month experiment
Description: as §1, §2

O=C([O-])O.[Na+] [sodium bicarbonate]
Overall course of uric acid content ([1]; over the six-month experiment): general decline | Uric acid serum level ([1]; August 1 2018): 6.79 mg/dL | Uric acid serum level ([1]; August 15 2018): 6.47 mg/dL | Uric acid serum level ([1]; December 1 2018): 5.41 mg/dL | Uric acid serum level ([1]; December 15 2018): 5.20 mg/dL | Uric acid serum level ([1]; July 1 2018): 6.62 mg/dL | Uric acid serum level ([1]; July 15 2018): 6.58 mg/dL | Uric acid serum level ([1]; June 1 2018): 6.99 mg/dL | Uric acid serum level ([1]; June 15 2018): 7.15 mg/dL | Uric acid serum level ([1]; November 1 2018): 5.37 mg/dL | Uric acid serum level ([1]; November 15 2018): 5.34 mg/dL | Uric acid serum level ([1]; October 1 2018): 5.47 mg/dL | Uric acid serum level ([1]; October 15 2018): 5.40 mg/dL | Uric acid serum level ([1]; September 1 2018): 5.98 mg/dL | Uric acid serum level ([1]; September 15 2018): 5.59 mg/dL | Tophi by visual inspection [2]: no longer visible

Source: patent US20210059955A1, “SYSTEMS AND METHODS FOR DECRYSTALLIZATION OF URIC ACID” (RL Patents, LLC, priority 2019, published 2021)
